Laboratory results from US5736555A, “Heterocyclic compounds and their use as angiotensin antagonists” (Takeda Chemical Industries, Ltd., priority 1991, dated 1998).

Key:
[1] = target: T1, angiotensin II (A-II) receptor (Bos taurus, UniProt P25104); experiment: Inhibitory Effect of Binding of Angiotensin-II to Angiotensin Receptor (radioreceptor assay, 125I-AII, adrenal cortex membrane fraction); details: bovine adrenal cortex membrane, room temperature, one hour
T1 construct: An A-II receptor membrane fraction was prepared from bovine adrenal cortex; from tissue; host or cells: bovine adrenal cortex membrane fraction
T1 sequence (P25104 1-359): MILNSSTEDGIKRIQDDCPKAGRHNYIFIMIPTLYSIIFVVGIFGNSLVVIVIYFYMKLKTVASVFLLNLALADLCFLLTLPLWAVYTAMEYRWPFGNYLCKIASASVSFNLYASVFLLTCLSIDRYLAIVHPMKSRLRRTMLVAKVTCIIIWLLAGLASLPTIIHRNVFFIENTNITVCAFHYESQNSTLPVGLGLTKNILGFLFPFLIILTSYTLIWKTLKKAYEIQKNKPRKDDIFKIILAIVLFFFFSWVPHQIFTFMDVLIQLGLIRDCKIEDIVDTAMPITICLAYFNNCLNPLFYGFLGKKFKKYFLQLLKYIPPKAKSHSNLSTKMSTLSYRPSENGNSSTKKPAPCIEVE
Protocol: Inhibitory Effect of Binding of Angiotensin-II to Angiotensin Receptor
An A-II receptor membrane fraction was prepared from bovine adrenal cortex.

[2] = tested on: A-II-induced pressor action; experiment: Inhibitory Effect of the Compound of the Present Invention on Pressor Action of AII (p.o.); assay type: in vivo, rat (Jcl: SD); details: rat, AII 100 ng/kg i.v.; for inhibition in vivo at 1 mg/kg / inhibition in vivo at 3 mg/kg: po, read-out: Pressor Response to A II (p.o.), percent inhibition class; for inhibition in vivo at 3 mg/kg: 3 mg/kg p.o.
Description: Inhibitory Effect of the Compound of the Present Invention on Pressor Action of AII
Jcl: SD rat (9 week old, male) were employed. On the day prior to the experiment, these animals were applied with cannulation into the femoral artery and vein under anesthesia with pentobarbital Na. These animals were fasted but allowed to free access to drinking water until the experiment was started. Just on the day of conducting the experiment, the artery cannula was connected with a blood-pressure transducer, and the average blood pressure was recorded by means of polygraph. Before administration of the drug, the pressor action due to intravenous administration of AII (100 ng/kg) as the control was determined. The drugs were orally administered, then, at each point of the determination, A-II was administered intravenously, and the pressor action was similarly determined. By comparing the pressor action before and after administration of the drug, the percent inhibition by the drug on A-II-induced pressor action was evaluated.

[3] = reported in literature; cited from earlier work

Row | Compound | inhibition at 1 µM ([1]; 10^-6 M) | inhibition at 0.1 µM ([1]; 10^-7 M) | inhibition in vivo at 1 mg/kg ([2]; 1 mg/kg p.o.) | inhibition in vivo at 3 mg/kg [2] | angiotensin II antagonist activity [3] | Radioreceptor assay % inhibition ([1]; 10^-6 M) | Radioreceptor assay % inhibition ([1]; 10^-7 M) | Pressor Response to A II (p.o.), percent inhibition class ([2]; 1 mg/kg p.o.)
1 | CCOc1nc2cccc(C(=O)O)c2n1Cc1ccc(-c2ccccc2-c2nc(=O)o[nH]2)cc1 [Example 1, 2-Ethoxy-1-[[2'-(2,5-dihydro-5-oxo-1,2,4-oxadiazol-3-yl)biphenyl-4-yl]methyl]benzimidazole-7-carboxylic Acid] | 79% | 34% | > 70% | > 70% | – | – | – | –
2 | CCOc1nc2cccc(C(=O)OC)c2n1Cc1ccc(-c2ccccc2C2=NOS(=O)N2)cc1 (centres unmarked) [Example 3, Methyl 2-ethoxy-1-[[2'-(2-oxo-3H-1,2,3,5-oxathiadiazol-4-yl)biphenyl]methyl]benzimidazole-7-carboxylate] | 75% | 33% | – | > 70% | – | – | – | –
3 | CCOc1nc2cccc(C(=O)OC(C)OC(=O)OC3CCCCC3)c2n1Cc1ccc(-c2ccccc2-c2nc(=O)o[nH]2)cc1 (centres unmarked) [Example 4, 1-(Cyclohexyloxycarbonyloxy)ethyl 2-ethoxy-1-[[2'-(2,5-dihydro-5-oxo-1,2,4-oxadiazol-3-yl)biphenyl-4-yl]methyl]benzimidazole-7-carboxylate] | 44% | 17% | > 70% | – | – | – | – | –
4 | CCSc1nc2c(C)sc(C(=O)O)c2n1Cc1ccc(-c2ccccc2-c2noc(=O)[nH]2)cc1 [Example 8, 2-Ethylthio-1-[[2'-(2,5-dihydro-5-oxo-1,2,4-oxadiazol-3-yl)biphenyl-4-yl]methyl]-4-methylthieno[3,4-d]imidazole-6-carboxylic Acid] | 40% | 8% | > 70% | – | – | – | – | –
5 | COc1nc2c(C)sc(C(=O)O)c2n1Cc1ccc(-c2ccccc2-c2nc(=O)o[nH]2)cc1 [Example 9, 2-Methoxy-1-[[2'-(2,5-dihydro-5-oxo-1,2,4-oxadiazol-3-yl)biphenyl-4-yl]methyl]-4-methylthieno[3,4-d]imidazole-6-carboxylic Acid] | 55% | 19% | > 70% | > 70% | – | – | – | –
6 | CCOc1nc2c(C)sc(C(=O)O)c2n1Cc1ccc(-c2ccccc2-c2nc(=O)o[nH]2)cc1 [Example 10, 2-Ethoxy-1-[[2'-(2,5-dihydro-5-oxo-1,2,4-oxadiazol-3-yl)biphenyl-4-yl]methyl]-4-methylthieno[3,4-d]imidazole-6-carboxylic Acid] | 51% | 17% | > 70% | – | – | – | – | –
7 | CCCOc1nc2c(C)sc(C(=O)O)c2n1Cc1ccc(-c2ccccc2-c2nc(=O)o[nH]2)cc1 [Example 11, 1-[2'-(2,5-Dihydro-5-oxo-1,2,4-oxadiazol-3-yl)biphenyl-4-yl]methyl-4-methyl-2-n-propoxythieno[3,4-d]imidazole-6-carboxylic Acid] | 41% | – | > 70% | – | – | – | – | –
8 | CCNc1nc2c(C)sc(C(=O)O)c2n1Cc1ccc(-c2ccccc2-c2nc(=O)o[nH]2)cc1 [Example 12, 2-Ethylamino-1-[[2'-(2,5-dihydro-5-oxo-1,2,4-oxadiazol-3-yl)biphenyl-4-yl]methyl]-4-methylthieno[3,4-d]imidazole-6-carboxylic Acid] | 78% | 46% | < 50% | – | – | – | – | –
9 | CCCc1nc2cccc(C(=O)O)c2n1Cc1ccc(-c2ccccc2-c2nc(=O)o[nH]2)cc1 [Example 30, 1-[[2'-(2,5-Dihydro-5-oxo-1,2,4-oxadiazol-3-yl)biphenyl-4-yl]methyl]-2-propylbenzimidazole-7-carboxylic Acid] | 77% | 35% | > 70% | – | – | – | – | –
10 | CCc1nc2cccc(C(=O)O)c2n1Cc1ccc(-c2ccccc2-c2nc(=O)o[nH]2)cc1 [Example 31, 2-Ethyl-1-[[2'-(2,5-dihydro-5-oxo-1,2,4-oxadiazol-3-yl)-biphenyl-4-yl]methyl]benzimidazole-7-carboxylic Acid] | 79% | 41% | > 70% | – | – | – | – | –
11 | O=C(O)c1cccc2nc(C3CC3)n(Cc3ccc(-c4ccccc4-c4noc(=O)[nH]4)cc3)c12 [Example 32, 2-Cyclopropyl-1-[[2'-(2,5-dihydro-5-oxo-1,2,4-oxadiazol-3-yl)biphenyl-4-yl]methyl]benzimidazole-7-carboxylic acid] | 75% | 27% | > 70% | – | – | – | – | –
12 | COC(=O)c1cccc2nc(C3CC3)n(Cc3ccc(-c4ccccc4-c4nc(=O)o[nH]4)cc3)c12 [Example 32c, Methyl 2-cyclopropyl-1-[[2'-(2,5-dihydro-5-oxo-1,2,4-oxadiazol-3-yl)biphenyl-4-yl]methyl]-benzimidazole-7-carboxylate] | 79% | 40% | > 70% | – | – | – | – | –
13 | CCCCc1nc2cccc(C(=O)O)c2n1Cc1ccc(-c2ccccc2-c2noc(=O)[nH]2)cc1 [Example 33, 2-Butyl-1-[[2'-(2,5-dihydro-5-oxo-1,2,4-oxadiazol-3-yl)-biphenyl-4-yl]methyl]benzimidazole-7-carboxylic acid] | 70% | 23% | 50 to 70% | – | – | – | – | –
14 | COc1nc2cccc(C(=O)O)c2n1Cc1ccc(-c2ccccc2-c2noc(=O)[nH]2)cc1 [Example 35, 1-[[2'-(2,5-Dihydro-5-oxo-1,2,4-oxadiazol-3-yl)biphenyl-4-yl]methyl]-2-methoxybenzimidazole-7-carboxylic acid] | 79% | 38% | > 70% | – | – | – | – | –
15 | CCCOc1nc2cccc(C(=O)O)c2n1Cc1ccc(-c2ccccc2-c2nc(=O)o[nH]2)cc1 [Example 36, 1-[[2'-(2,5-Dihydro-5-oxo-1,2,4-oxadiazol-3-yl)biphenyl-4-yl]methyl]-2-propoxybenzimidazole-7-carboxylic acid] | 60% | 18% | > 70% | – | – | – | – | –
16 | CCc1nc2c(C)cc(C(=O)O)nc2n1Cc1ccc(-c2ccccc2-c2nc(=O)o[nH]2)cc1 [Example 56, 2-Ethyl-3-[[2'-(2,5-dihydro-5-oxo-1,2,4-oxadiazol-3-yl)biphenyl-4-yl]methyl]-7-methylimidazo[4,5-b]pyridine-5-carboxylic acid] | 94% | 80% | > 70% | – | – | – | – | –
17 | CCOc1nc2cccc(C(=O)OC)c2n1Cc1ccc(-c2ccccc2-c2nc(=O)s[nH]2)cc1 [Example 60, Methyl 2-ethoxy-1-[[2'-(2,5-dihydro-5-oxo-1,2,4-thiadiazol-3-yl)biphenyl-4-yl]methyl]benzimidazole-7-carboxylate] | 84% | 43% | > 70% | – | – | – | – | –
18 | CNCC(=O)N[C@@H](CCCN=C(N)N)C(=O)N[C@H](C(=O)N[C@@H](Cc1ccc(O)cc1)C(=O)N[C@H](C(=O)N[C@@H](Cc1cnc[nH]1)C(=O)N1CCC[C@H]1C(=O)N[C@@H](C)C(=O)O)C(C)C)C(C)C [saralasin] | – | – | – | – | potent | – | – | –
19 | Acetoxymethyl 1-[[2'-(4-acetoxymethyl-4,5-dihdyro-5-oxo-4H-1,2,4-oxadiazol-3-yl)biphenyl-4-yl]methyl]-2-ethoxybenzimidazole-7-carboxylate [Example 13] | – | – | – | – | – | 69% | 31% | +++ (+++ ≥ 70%)
